Test results from ChEMBL document CHEMBL3739364, “Synthesis and biological evaluation of novel 5-(hydroxamic acid)methyl oxazolidinone derivatives” (Eur J Med Chem, 2015).
Converted amounts (≈) assume the structure as drawn.

Tests used:
[1] = test system: Staphylococcus epidermidis; assay: Antibacterial activity against methicillin-sensitive Staphylococcus epidermidis ATCC 12228; format: functional
Streptococcus pneumoniae = assay: Antibacterial activity against Streptococcus pneumoniae; format: functional
Escherichia coli = assay: Antibacterial activity against Escherichia coli ATCC 25922; format: functional
[2] = target: T1, MAO-A (amine oxidase [flavin-containing] A) (Homo sapiens, UniProt P21397); assay: Inhibition of human recombinant MAO-A using p-tyramine as substrate at 50 to 200 uM measured up to 50 mins by ELISA screening analysis; conditions: probe p-tyramine
T1 sequence (P21397 whole entry): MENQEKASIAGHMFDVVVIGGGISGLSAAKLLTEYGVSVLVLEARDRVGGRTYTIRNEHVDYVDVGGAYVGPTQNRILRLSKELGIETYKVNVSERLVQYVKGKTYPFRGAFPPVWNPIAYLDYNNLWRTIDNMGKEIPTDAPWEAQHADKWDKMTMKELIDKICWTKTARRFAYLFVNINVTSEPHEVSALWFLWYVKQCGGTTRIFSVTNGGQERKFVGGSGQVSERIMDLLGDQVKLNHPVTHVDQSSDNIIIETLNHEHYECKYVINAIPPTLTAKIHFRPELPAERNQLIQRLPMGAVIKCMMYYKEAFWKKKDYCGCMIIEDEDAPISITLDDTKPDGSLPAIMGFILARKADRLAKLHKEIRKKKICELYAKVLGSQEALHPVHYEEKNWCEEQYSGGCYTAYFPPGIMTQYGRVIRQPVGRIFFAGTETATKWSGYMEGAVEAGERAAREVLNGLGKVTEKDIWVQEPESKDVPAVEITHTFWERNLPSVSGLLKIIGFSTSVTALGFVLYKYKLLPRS

Haemophilus influenzae = assay: Antibacterial activity against Haemophilus influenzae ATCC 49247; format: functional
[3] = target: T2, Amine oxidase [flavin-containing] B (Homo sapiens, UniProt P27338); assay: Inhibition of human recombinant MAO-B using p-tyramine as substrate after 15 mins by UV/Vis spectrophotometer analysis
T2 sequence (P27338 whole entry): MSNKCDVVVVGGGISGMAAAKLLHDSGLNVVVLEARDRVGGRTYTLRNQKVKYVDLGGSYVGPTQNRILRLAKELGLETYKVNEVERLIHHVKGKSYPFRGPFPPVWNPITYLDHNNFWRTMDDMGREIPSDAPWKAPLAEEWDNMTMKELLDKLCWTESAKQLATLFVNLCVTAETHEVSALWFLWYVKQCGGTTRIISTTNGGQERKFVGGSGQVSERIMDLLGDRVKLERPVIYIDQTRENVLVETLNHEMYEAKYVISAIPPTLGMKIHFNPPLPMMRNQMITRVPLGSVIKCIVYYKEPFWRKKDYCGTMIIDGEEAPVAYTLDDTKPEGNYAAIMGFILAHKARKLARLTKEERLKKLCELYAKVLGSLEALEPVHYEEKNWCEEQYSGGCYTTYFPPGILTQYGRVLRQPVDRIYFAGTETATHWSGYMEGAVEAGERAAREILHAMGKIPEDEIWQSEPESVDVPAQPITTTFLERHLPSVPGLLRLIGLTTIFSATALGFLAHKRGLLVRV

Staphylococcus aureus [4] = assay: Antibacterial activity against […] Staphylococcus aureus ATCC 25923; format: functional
[5] = target: T3, MAO-B (amine oxidase [flavin-containing] B) (Homo sapiens, UniProt P27338); assay: Inhibition of human recombinant MAO-B using p-tyramine as substrate at 50 to 200 uM measured up to 50 mins by ELISA screening analysis; conditions: probe p-tyramine
T3 sequence (P27338 whole entry): T2 sequence (P27338 whole entry)

Homo sapiens = species: Homo sapiens; assay: Selectivity ratio of IC50 for human recombinant MAO-A to IC50 for human recombinant MAO-B
[6] = target: T4, Amine oxidase [flavin-containing] A (Homo sapiens, UniProt P21397); assay: Inhibition of human recombinant MAO-A using p-tyramine as substrate after 15 mins by UV/Vis spectrophotometer analysis
T4 sequence (P21397 whole entry): T1 sequence (P21397 whole entry)

[7] = target: T4, Amine oxidase [flavin-containing] A; assay: Reversible inhibition of human MAO-A
[8] = target: T2, Amine oxidase [flavin-containing] B; assay: Reversible inhibition of human MAO-B
Staphylococcus aureus [9] = assay: Antibacterial activity against […] Staphylococcus aureus ATCC 25923 after 18 hrs by broth dilution method; format: functional; conditions: ATCC 25923, 18 h
[10] = test system: Staphylococcus epidermidis; assay: Antibacterial activity against methicillin-sensitive Staphylococcus epidermidis ATCC 12228 after 18 hrs by broth dilution method; format: functional; conditions: ATCC 12228, 18 h
[11] = test system: Mycobacterium tuberculosis; assay: Antimycobacterial activity against Mycobacterium tuberculosis H37Rv ATCC 27294; format: functional
[12] = test system: Mycobacterium tuberculosis; assay: Antimycobacterial activity against Mycobacterium tuberculosis H37Rv; format: functional

| Structure (SMILES) | MIC [1] [µg/mL] | MIC (Streptococcus pneumoniae) [µg/mL] | MIC (Escherichia coli) [µg/mL] | inhibition at 50 min [2] [%] | MIC (Haemophilus influenzae) [µg/mL] | IC50 [3] [µM] | MIC (Staphylococcus aureus [4]) [µg/mL] | inhibition at 50 min [5] [%] | Ratio IC50 (Homo sapiens) | IC50 [6] [µM] | IC50 [7] [µM] | IC50 [8] [µM] | MIC (Staphylococcus aureus [9]) [µg/mL] | MIC [10] [µg/mL] | MIC50 [11] [µg/mL] | MIC90 [11] [µg/mL] | MIC [12] [µg/mL] |
| --- | --- | --- | --- | --- | --- | --- | --- | --- | --- | --- | --- | --- | --- | --- | --- | --- | --- |
| CC(=O)N1CCN(c2ccc(N3C[C@H](CN(OC(=O)C4CC4)C(=O)C4CC4)OC3=O)cc2F)CC1 | > 32 | > 32 | > 32 | < 50 | > 32 |  |  |  |  |  |  |  |  |  |  |  |  |
| CC(C)C(=O)N(O)C[C@H]1CN(c2ccc(N3CCOCC3)c(F)c2)C(=O)O1 | > 32 | > 32 | > 32 | < 50 | > 32 | 107 | > 32 | ≥ 50 |  |  |  |  |  |  |  |  |  |
| CC(=O)ON(C[C@H]1CN(c2ccc(N3CCOCC3)c(F)c2)C(=O)O1)C(C)=O | > 32 | > 32 | > 32 | < 50 | > 32 |  |  | < 50 |  |  |  |  |  |  |  |  |  |
| O=C(C1CC1)N(O)C[C@H]1CN(c2ccc(N3CCOCC3)c(F)c2)C(=O)O1 | > 32 | > 32 | > 32 | ≥ 50 | > 32 | 90.9 | > 32 | ≥ 50 | 1.23 | 112 |  |  |  |  |  |  |  |
| Cn1nnc(-c2ccc(-c3ccc(N4C[C@H](CO)OC4=O)cc3F)cn2)n1 [TEDIZOLID] |  |  |  |  |  |  |  |  |  |  | 8.7 | 5.7 |  |  |  |  |  |
| CC(=O)N1CCN(c2ccc(N3C[C@H](CNO)OC3=O)cc2F)CC1.O=C(O)C(F)(F)F | > 32 | > 32 | > 32 | ≥ 50 | > 32 |  | > 32 |  |  | 46.6 |  |  |  |  |  |  |  |
| CCC(=O)N(O)C[C@H]1CN(c2ccc(N3CCOCC3)c(F)c2)C(=O)O1 | > 32 | > 32 | > 32 | ≥ 50 | > 32 | 100 | > 32 | ≥ 50 | 1.15 | 115 |  |  |  |  |  |  |  |
| O=C(ON(C[C@H]1CN(c2ccc(N3CCOCC3)c(F)c2)C(=O)O1)C(=O)C1CC1)C1CC1 | > 32 | > 32 | > 32 | < 50 | > 32 |  |  | < 50 |  |  |  |  |  |  |  |  |  |
| CC(=O)ON(C[C@H]1CN(c2ccc(N3CCN(C(C)=O)CC3)c(F)c2)C(=O)O1)C(C)=O | > 32 | > 32 | > 32 | < 50 | > 32 |  |  |  |  |  |  |  |  |  |  |  |  |
| CC(=O)N(O)C[C@H]1CN(c2ccc(N3CCOCC3)c(F)c2)C(=O)O1 |  | > 32 | > 32 | < 50 | > 32 |  |  | < 50 |  |  |  |  | > 32 | 16 (≈ 45.3 µM) | 1.38 (≈ 3.91 µM) | 4.6 (≈ 13 µM) |  |
| CCC(=O)ON(C[C@H]1CN(c2ccc(N3CCN(C(C)=O)CC3)c(F)c2)C(=O)O1)C(=O)CC | > 32 | > 32 | > 32 | < 50 | > 32 |  |  |  |  |  |  |  |  |  |  |  |  |
| CC(=O)N1CCN(c2ccc(N3C[C@H](CN(OC(=O)C(C)C)C(=O)C(C)C)OC3=O)cc2F)CC1 | > 32 | > 32 | > 32 | < 50 | > 32 |  |  | < 50 |  |  |  |  |  |  |  |  |  |
| CC(C)C(=O)ON(C[C@H]1CN(c2ccc(N3CCOCC3)c(F)c2)C(=O)O1)C(=O)C(C)C | > 32 | > 32 | > 32 | < 50 | > 32 | 108 |  | ≥ 50 |  |  |  |  |  |  |  |  |  |
| CCC(=O)ON(C[C@H]1CN(c2ccc(N3CCOCC3)c(F)c2)C(=O)O1)C(=O)CC | > 32 | > 32 | > 32 | < 50 | > 32 | 168 |  | ≥ 50 |  |  |  |  |  |  |  |  |  |
| CCC(=O)N(O)C[C@H]1CN(c2ccc(N3CCN(C(C)=O)CC3)c(F)c2)C(=O)O1 | > 32 | > 32 | > 32 | < 50 | > 32 |  | > 32 |  |  |  |  |  |  |  |  |  |  |
| O=C1O[C@@H](CNO)CN1c1ccc(N2CCOCC2)c(F)c1 | > 32 | > 32 | > 32 | ≥ 50 | > 32 | 112 | > 32 | ≥ 50 | 1.29 | 144 |  |  |  |  |  |  |  |
| NC(=S)NC[C@H]1CN(c2ccc(C3CCCCC3=O)c(F)c2)C(=O)O1 (some centres not stated) |  |  |  |  |  |  |  |  |  |  |  |  |  |  |  |  | 0.06 (≈ 0.164 µM) |
| CC(=O)NC[C@H]1CN(c2ccc(N3CCOCC3)c(F)c2)C(=O)O1 [LINEZOLID] | 2 (≈ 5.93 µM) |  |  | ≥ 50 |  |  |  | ≥ 50 |  |  | 46 | 2.1 |  |  |  |  |  |
| CC(=O)N(O)C[C@H]1CN(c2ccc(N3CCN(C(C)=O)CC3)c(F)c2)C(=O)O1 | > 32 | > 32 | > 32 | < 50 | > 32 |  | > 32 | < 50 |  |  |  |  |  |  |  |  |  |
